Source: ChEMBL document CHEMBL5390303, “Discovery of Potent and Oral Bioavailable MAT2A Inhibitors for the Treatment of MTAP-Deleted Tumors” (ACS Med Chem Lett, 2023)

Legend:
[1] = target: S-adenosylmethionine synthase isoform type-2 (Homo sapiens, UniProt P31153); test: Inhibition of MAT2A (unknown origin) using L-methionine as substrate preincubated for 30 mins followed by substrate addition measured after 60 mins by colorimetric assay
[2] = system: HCT-116; test: Antitumor activity against MTAP-knockout human HCT-116 cells xenografted in Nu/Nu mouse model assessed as inhibition of tumor growth at 50 mg/kg, po qd measured after 21 days relative to control; assay type: functional; details: HCT-116, 504 h, time 21 day, read-out: TGI
[3] = Plasma protein binding in mouse assessed as unbound fraction at 1 uM incubated for 6 hrs by LC-MS/MS based rapid equlibrium dialysis method; assay type: ADME, cell-free
[4] = AUClast in male Beagle dog at 3 mg/kg, po incubated for 24 hrs by LC-MS/MS analysis; assay type: ADME, organism-based, Canis lupus familiaris; design: dose 3 mg/kg, time 24 hrs, route po; details: in vivo
[5] = target: Cytochrome P450 2C9 (Homo sapiens, UniProt P11712); test: Inhibition of human liver microsomes CYP2C9 using Diclofenac as substrate incubated for 5 mins with compound followed by substrate and NADPH addition measured after 10 mins by LC-MS/MS analysis; assay type: ADME, Microsome
[6] = system: HCT-116; test: Antiproliferative activity against MTAP knockout human HCT-116 assessed as inhibition of cell proliferation incubated for 6 days by alamar blue reagent based analysis; assay type: functional; details: HCT-116, 144 h
[7] = AUC(0 to last) in male Sprague-Dawley rat at 10 mg/kg, po incubated for 24 hrs by LC-MS/MS analysis; assay type: ADME, organism-based; design: dose 10 mg/kg, time 24 hrs, route po; details: in vivo
[8] = Cmax in male Beagle dog at 3 mg/kg, po incubated for 24 hrs by LC-MS/MS analysis; assay type: ADME, organism-based, Canis lupus familiaris; design: dose 3 mg/kg, time 24 hrs, route po; details: in vivo
[9] = Cmax in ICR mouse plasma at 10 mg/kg, IG measured after 24 hrs by LC-MS/MS analysis; assay type: ADME, organism-based; design: dose 10 mg/kg, time 24 hrs, route ig; details: po
[10] = Tmax in male Sprague-Dawley rat plasma at 10 mg/kg, po incubated for 24 hrs by LC-MS/MS analysis; assay type: ADME, organism-based
[11] = Plasma protein binding in rat assessed as unbound fraction at 1 uM incubated for 6 hrs by LC-MS/MS based rapid equlibrium dialysis method; assay type: ADME, cell-free
[12] = Half life in male Sprague-Dawley rat plasma at 10 mg/kg, po incubated for 24 hrs by LC-MS/MS analysis; assay type: ADME, organism-based
[13] = system: HCT-116; test: Antitumor activity against MTAP-knockout human HCT-116 cells xenografted in Nu/Nu mouse model assessed as tumor growth inhibition at 10 mg/kg, po qd measured after 21 days relative to control; assay type: functional; details: HCT-116, 504 h, time 21 day, read-out: TGI
[14] = Metabolic stability in human liver microsomes assessed as intrinsic clearance; assay type: ADME, Microsome; details: read-out: CLH
[15] = Tmax in male Beagle dog at 3 mg/kg, po incubated for 24 hrs by LC-MS/MS analysis; assay type: ADME, organism-based, Canis lupus familiaris; details: in vivo
[16] = Toxicity in Nu/Nu mouse xenografted with MTAP-knockout human HCT-116 cells assessed as maximum body weight loss at 10 to 20 mg/kg, po qd measured after 21 days; assay type: organism-based; details: in vivo, 504 h, dose 10-20 mg/kg, time 21 day
[17] = target: Cytochrome P450 2D6 (Homo sapiens, UniProt P10635); test: Inhibition of human liver microsomes CYP2D6 using Dextromethorphan as substrate incubated for 5 mins with compound followed by substrate and NADPH addition measured after 10 mins by LC-MS/MS analysis; assay type: ADME, Microsome
[18] = Plasma protein binding in human assessed as unbound fraction at 1 uM incubated for 6 hrs by LC-MS/MS based rapid equlibrium dialysis method relative to control; assay type: ADME, cell-free
[19] = system: HCT-116; test: Antitumor activity against MTAP-knockout human HCT-116 cells xenografted in Nu/Nu mouse model assessed as reduction in SAM concentration at 20 mg/kg, po qd administered for 21 days measured after 10 hrs post last dose relative to control; assay type: functional; design: scale not given: the % may be the effect or the level left; details: time 514 hrs
[20] = target: Cytochrome P450 3A4 (Homo sapiens, UniProt P08684); test: Inhibition of human liver microsomes CYP3A4 using Midazolam as substrate incubated for 5 mins with compound followed by substrate and NADPH addition measured after 5 mins by LC-MS/MS analysis; assay type: ADME, Microsome
[21] = Tmax in ICR mouse plasma at 10 mg/kg, IG measured after 24 hrs by LC-MS/MS analysis; assay type: ADME, organism-based; details: po
[22] = Half life in male Beagle dog at 3 mg/kg, po incubated for 24 hrs by LC-MS/MS analysis; assay type: ADME, organism-based, Canis lupus familiaris; details: in vivo
[23] = AUClast in ICR mouse plasma at 10 mg/kg, IG incubated for 24 hrs by LC-MS/MS analysis; assay type: ADME, organism-based; design: dose 10 mg/kg, time 24 hrs, route ig; details: po
[24] = system: HCT-116; test: Antitumor activity against MTAP-knockout human HCT-116 cells xenografted in Nu/Nu mouse model assessed as tumor growth inhibition at 20 mg/kg, po qd measured after 21 days relative to control; assay type: functional; details: HCT-116, 504 h, time 21 day, read-out: TGI
[25] = Half life in ICR mouse plasma at 10 mg/kg, IG measured after 24 hrs by LC-MS/MS analysis; assay type: ADME, organism-based; details: po
[26] = target: Cytochrome P450 2C19 (Homo sapiens, UniProt P33261); test: Inhibition of human liver microsomes CYP2C19 incubated for 5 mins with compound followed by substrate and NADPH addition measured after 10 mins by LC-MS/MS analysis; assay type: ADME, Microsome
[27] = Cmax in male Sprague-Dawley rat plasma at 10 mg/kg, po incubated for 24 hrs by LC-MS/MS analysis; assay type: ADME, organism-based; design: time 24 hrs, dose 10 mg/kg, route po
[28] = Plasma protein binding in dog assessed as unbound fraction at 1 uM incubated for 6 hrs by LC-MS/MS based rapid equlibrium dialysis method; assay type: ADME, cell-free, Canis lupus familiaris

Sequence of S-adenosylmethionine synthase isoform type-2 (P31153 whole entry, canonical isoform): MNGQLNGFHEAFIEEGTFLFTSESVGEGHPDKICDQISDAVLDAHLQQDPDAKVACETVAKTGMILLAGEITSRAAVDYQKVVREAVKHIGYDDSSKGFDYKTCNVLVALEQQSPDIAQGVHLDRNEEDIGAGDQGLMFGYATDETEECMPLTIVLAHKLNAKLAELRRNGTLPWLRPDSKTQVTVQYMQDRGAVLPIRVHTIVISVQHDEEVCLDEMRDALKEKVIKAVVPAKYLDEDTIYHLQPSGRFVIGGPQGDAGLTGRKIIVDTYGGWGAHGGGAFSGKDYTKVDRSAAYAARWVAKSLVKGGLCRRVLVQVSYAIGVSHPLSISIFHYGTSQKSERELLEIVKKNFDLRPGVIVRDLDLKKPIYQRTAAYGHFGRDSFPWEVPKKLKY
Sequence of Cytochrome P450 2C9 (P11712 whole entry): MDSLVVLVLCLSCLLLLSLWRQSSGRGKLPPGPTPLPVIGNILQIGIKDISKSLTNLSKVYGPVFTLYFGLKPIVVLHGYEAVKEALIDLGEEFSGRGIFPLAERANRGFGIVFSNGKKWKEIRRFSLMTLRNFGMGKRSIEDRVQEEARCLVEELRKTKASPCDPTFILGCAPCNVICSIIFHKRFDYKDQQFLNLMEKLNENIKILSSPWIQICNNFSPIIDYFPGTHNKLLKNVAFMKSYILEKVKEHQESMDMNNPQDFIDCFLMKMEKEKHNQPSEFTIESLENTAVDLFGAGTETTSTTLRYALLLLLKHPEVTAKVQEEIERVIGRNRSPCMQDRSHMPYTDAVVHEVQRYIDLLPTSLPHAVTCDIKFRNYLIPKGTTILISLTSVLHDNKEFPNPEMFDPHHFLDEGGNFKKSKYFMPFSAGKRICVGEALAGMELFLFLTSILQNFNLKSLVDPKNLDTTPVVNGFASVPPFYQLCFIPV
Sequence of Cytochrome P450 2D6 (P10635 whole entry): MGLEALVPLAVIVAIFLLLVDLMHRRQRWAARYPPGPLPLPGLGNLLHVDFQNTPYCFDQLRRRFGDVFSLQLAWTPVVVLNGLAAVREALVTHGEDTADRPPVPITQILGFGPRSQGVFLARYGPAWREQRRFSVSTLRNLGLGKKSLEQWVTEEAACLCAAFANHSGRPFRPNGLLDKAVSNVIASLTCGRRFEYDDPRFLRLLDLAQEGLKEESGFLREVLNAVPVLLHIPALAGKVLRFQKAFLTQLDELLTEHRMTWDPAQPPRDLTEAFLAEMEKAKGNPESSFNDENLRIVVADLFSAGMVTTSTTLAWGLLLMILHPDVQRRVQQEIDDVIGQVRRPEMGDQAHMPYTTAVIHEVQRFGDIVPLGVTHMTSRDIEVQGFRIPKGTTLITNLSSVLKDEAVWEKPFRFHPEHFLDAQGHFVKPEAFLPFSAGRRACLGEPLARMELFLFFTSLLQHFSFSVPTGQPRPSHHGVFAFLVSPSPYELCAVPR
Sequence of Cytochrome P450 2C19 (P33261 whole entry): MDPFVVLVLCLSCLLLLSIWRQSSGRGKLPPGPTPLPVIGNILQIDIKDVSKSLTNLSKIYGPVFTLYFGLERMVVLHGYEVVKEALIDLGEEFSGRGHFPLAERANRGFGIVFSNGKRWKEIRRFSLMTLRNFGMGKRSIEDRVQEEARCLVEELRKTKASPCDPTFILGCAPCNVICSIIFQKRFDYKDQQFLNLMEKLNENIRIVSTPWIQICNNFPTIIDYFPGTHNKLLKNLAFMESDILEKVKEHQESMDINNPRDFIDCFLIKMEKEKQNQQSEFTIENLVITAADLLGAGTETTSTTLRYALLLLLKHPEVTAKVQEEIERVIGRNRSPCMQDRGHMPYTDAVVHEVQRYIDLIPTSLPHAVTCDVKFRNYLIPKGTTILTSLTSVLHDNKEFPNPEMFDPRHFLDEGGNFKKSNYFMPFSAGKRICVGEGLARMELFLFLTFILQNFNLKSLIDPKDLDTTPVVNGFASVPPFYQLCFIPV
Sequence of Cytochrome P450 3A4 (P08684 whole entry): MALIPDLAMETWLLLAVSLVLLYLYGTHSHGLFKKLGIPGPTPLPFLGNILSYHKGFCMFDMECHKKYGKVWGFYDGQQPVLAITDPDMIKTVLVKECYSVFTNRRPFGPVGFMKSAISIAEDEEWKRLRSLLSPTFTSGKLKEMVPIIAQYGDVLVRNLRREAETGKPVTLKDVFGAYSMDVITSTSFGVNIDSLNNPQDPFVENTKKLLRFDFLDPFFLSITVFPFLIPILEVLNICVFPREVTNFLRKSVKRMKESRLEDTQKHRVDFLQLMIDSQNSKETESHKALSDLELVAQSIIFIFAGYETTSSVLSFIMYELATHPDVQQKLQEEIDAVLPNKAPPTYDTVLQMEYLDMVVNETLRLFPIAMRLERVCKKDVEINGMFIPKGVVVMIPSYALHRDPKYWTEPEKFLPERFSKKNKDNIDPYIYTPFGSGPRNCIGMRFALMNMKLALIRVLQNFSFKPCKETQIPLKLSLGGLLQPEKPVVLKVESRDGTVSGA

For `CNc1nc(=O)c(-c2cccc(C)c2)c2cc(C(F)(F)F)ccn12`, the IC50 [1] was 60 nM.

`O=c1nc(NC2CCC2)n2ccc(C(F)(F)F)cc2c1-c1ccccc1F` showed an IC50 [1] of 121 nM.

`COc1ccc(-c2c(Nc3ccccn3)[nH]c3c(C4=CCCCC4)c(-c4ccccc4)nn3c2=O)cc1` gave an inhibition in vivo at 50 mg/kg [2] of 43%.

For `O=c1nc(N[C@H]2C[C@H](O)C2)n2ccc(C(F)(F)F)cc2c1-c1ccccc1F`, the IC50 [1] was 192 nM.

Molecule `CNc1cc(=O)n(-c2ccccc2Cl)c2nc(C(F)(F)F)ccc12` has an IC50 [1] of 252 nM.

Work on `CNc1nc(=O)c(-c2ccccc2C(C)C)c2cc(C(F)(F)F)ccn12` yielded an IC50 [1] of 68 nM.

Molecule `O=c1nc(NCC(F)F)n2ccc(C(F)(F)F)cc2c1-c1ccccc1F` has an IC50 [1] of 119 nM.

With `CNc1nc(=O)c(-c2ccccc2)c2cc(C(F)(F)F)ccn12` the IC50 [1] was 65 nM.

With `CC(C)Nc1nc(=O)c(-c2ccccc2F)c2cc(C(F)(F)F)ccn12` the IC50 [1] was 80 nM.

In the case of `O=C(C1CC1)N1CC(=O)N(c2ccccc2Cl)c2cc(C(F)(F)F)ccc21`, the IC50 [1] is reported as 2550 nM.

With `CNc1nc(=O)c(-c2ccc(C)cc2)c2cc(C(F)(F)F)ccn12` the IC50 [1] was 347 nM.

In the case of `CNc1nc(=O)c(-c2c(F)cccc2F)c2cc(C(F)(F)F)ccn12`, the IC50 [1] is reported as 65 nM.

Molecule `CNc1nc(=O)c(-c2cccc(Cl)c2)c2cc(C(F)(F)F)ccn12` has an IC50 [1] of 107 nM.

With `O=c1nc(NC2CC2)n2ccc(C(F)(F)F)cc2c1-c1ccccc1F` the IC50 [1] was 120 nM.

`O=c1nc(NC2CC2)n2ccc(C(F)(F)F)cc2c1-c1cccc(F)c1` gave an IC50 [1] of 46 nM.

With `CNc1nc(=O)c(-c2ccccc2Cl)c2cc(C(F)(F)F)cnn12` the IC50 [1] was greater than 10000 nM.

`CNc1nc(=O)c(-c2cccc(C#N)c2)c2cc(C(F)(F)F)ccn12` gave an IC50 [1] of 199 nM.

`CNc1nc(=O)c(-c2ccccc2Cl)c2cc(C(F)(F)F)ccn12` gave an IC50 [1] of 49 nM.

Work on `CNc1nc(=O)n(-c2ccccc2Cl)c2c1CCN(C)C2` yielded an IC50 [1] greater than 10000 nM.

Molecule `CNc1nc(=O)c(-c2ccccc2Cl)c2cc(C(F)F)ccn12` has an IC50 [1] of 49 nM.

With `CNc1nc(=O)n(-c2ccccc2Cl)c2cc(C(F)(F)F)sc12` the IC50 [1] was 268 nM.

With `O=c1nc(N2CCCC2)n2ccc(C(F)(F)F)cc2c1-c1ccccc1F` the IC50 [1] was 531 nM.

With `CNc1nc(=O)c(-c2cccc(F)c2)c2cc(C(F)(F)F)ccn12` the IC50 [1] was 42 nM.

In the case of `CNc1nc(=O)c(-c2ccccc2Cl)c2cc(C3CC3)ccn12`, the IC50 [1] is reported as 53 nM.

`CNc1nc(=O)c(-c2ccccc2Cl)c2cc(C)ccn12` showed an IC50 [1] of 143 nM.

Molecule `CNc1nc(=O)c(-c2ccccc2F)c2cc(C(F)(F)F)ccn12` has an IC50 [1] of 45 nM.

Molecule `O=c1nc(NC2CC2)n2ccc(C(F)(F)F)cc2c1-c1cccnc1F` has a fraction unbound at 6 h, 1 µM [3] of 0.091, an AUC(0-t) at 24 h [4] of 9310 ng·h/mL and an IC50 [5] greater than 10000 nM. The IC50 [6] was 273 nM, the AUC(0-t) at 24 h [7] was 16200 ng·h/mL and the Cmax [8] was 1680 ng/mL. It also gave a Cmax [9] of 16200 ng/mL, a Tmax [10] of 3.3 h and a fraction unbound at 6 h, 1 µM [11] of 0.329. For the same molecule, the half-life [12] was 3 h, the IC50 [1] was 40 nM and the inhibition in vivo at 10 mg/kg [13] was 48%. It also gave a CLint scaled [14] of 1.4 mL/min/kg, a Tmax [15] of 1.3 h and an Activity [16] of 11%. It also gave an IC50 [17] greater than 10000 nM, a fraction unbound at 6 h, 1 µM [18] of 0.216 and an Activity [19] of 79%. It also gave an IC50 [20] greater than 10000 nM, a Tmax [21] of 0.67 h and a half-life [22] of 2.6 h. For the same molecule, the AUC(0-t) at 24 h [23] was 34000 ng·h/mL, the inhibition in vivo at 20 mg/kg [24] was 60% and the half-life [25] was 3.3 h. It also gave an IC50 [26] greater than 10000 nM, a Cmax [27] of 2820 ng/mL and a fraction unbound at 6 h, 1 µM [28] of 0.325.

`O=c1nc(NC2CC2)n2ccc(C(F)(F)F)cc2c1-c1cccc(O)c1F` gave a Cmax [9] of 3960 ng/mL, an IC50 [1] of 31 nM and a Tmax [21] of 0.33 h. It also gave an AUC(0-t) at 24 h [23] of 8880 ng·h/mL and a half-life [25] of 7.7 h.
